Measured values from patent US20230399303A1, “Macrophage Migration Inhibitory Factor Inhibitors, and Methods of Making and Using Same” (YALE UNIVERSITY, priority 2020, published 2023).

Biological target: T1, MIF (Homo sapiens, UniProt P14174)
T1 sequence (P14174 2-115 limits assumed): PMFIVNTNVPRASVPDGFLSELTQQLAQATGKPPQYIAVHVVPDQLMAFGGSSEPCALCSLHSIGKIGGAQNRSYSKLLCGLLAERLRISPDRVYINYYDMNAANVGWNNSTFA
Assay: Competitive fluorescence polarization (FP) assay with tracer ligand B
Format: binding
Conditions: MIF Inhibition by Compounds of formula (Ia); Kd calculated from the IC50 of the competitive FP assay, fluorescent ligand B as tracer
Description: Determination of the affinities for A and B by FP assay. Determination of Kd values for the tracers followed previously reported protocols for other proteins. Experiments are carried out by quadruplicates in three independent experiments. In a flat black bottom 96 well plate (Corning), add to the third column 300 μL of 1.8 μM MIF in FP buffer (20 mM HEPES, 150 mM NaCl, 0.01% Tween-20, pH 7.4). From this column, using a multichannel pipette make serial dilutions (1:2) into the following wells to a total volume of 150 μL. First column contains 200 μL buffer and is used as a blank, while second column contains 150 μL buffer. 2 μL of DMSO are added to each well to keep 1% of DMSO, followed by the addition of 16.7 nM ligand A or B (48 μL) except first column (blank). Fluorescence polarization is measured at λexc=485±20 nm, λem=535±25 nm using an Infinite F500 plate reader until no FP variation was observed (typically 1 h). From the lowest and highest FP values (tracer free and tracer fully bound to MIF) we calculated the fraction of ligand bound to the protein to ligand total (Lb/Lt) for each concentration of MIF.
Competitive FP assay. In order to calculate the Kd values of the unlabeled compounds, competitive assays were carried out in quadruplicates in three independent experiments. In a flatblack bottom 96 well plate (Corning) 140 μL of FP buffer are added to columns 3-12. First column contains 200 μL buffer (blank), while second column contains 150 μL FP buffer. 10 μL of 1.1 μM MIF are added to columns 3-12 followed by the addition of 2 μL of inhibitor in DMSO at 9 different concentrations. 2 μL of DMSO are added to columns 1-3. After 20 min of incubation at rt 48 μL of 16.7 nM ligand B are added to columns 2-12 and fluorescencepolarization was measured at λexc=485±20 nm, λem=535±25 nm for 1 h. Data are analyzed by a least-squares non-linear fit, generated using Prism 6 in order to determine the compound's IC50. Kd values for each inhibitor are calculated using the following equation based on the IC50, Kd of the tracer (K^t), total (Lt) and bound (Lb) tracer, as well as total MIF concentration (Pt). Samples of 4-IPP and Pontamine Sky Blue were purchased both from Tocris and Santa Cruz Biotechnology.

Row | SMILES | Kd [nM]
1 | COCCOc1ccc(N2Cc3ccc(O)cc3OC2=O)cc1 [Compound C1] | 6 ± 1
2 | O=C1Oc2cc(O)ccc2CN1c1ccc(OCCOCCOc2cccc(N3CCOCC3)c2)cc1 [Compound C9] | 53 ± 7
3 | O=C1Oc2cc(O)ccc2CN1c1ccc(OCCN2CCOCC2)cc1 [Compound C8, 7-Hydroxy-3-(4-(2-morpholinoethoxy)phenyl)-3,4-dihydro-2H-benzo[e][1,3]oxazin-2-one] | 12 ± 1
4 | O=C1Oc2cc(O)ccc2CN1c1ccc(C23CC4CC(CC(C4)C2)C3)cc1 [Compound C6] | 828 ± 44
5 | O=C1Oc2cc(O)ccc2CN1c1ccc(OCCOCCOCCN2CCOCC2)cc1 [Compound C7] | 23 ± 6
6 | O=C1Oc2cc(O)ccc2CN1c1ccc(OCCOCCN2CCOCC2)cc1 [Compound C3, 7-Hydroxy-3-(4-(2-(2-morpholinoethoxy)ethoxy)phenyl)-3,4-dihydro-2H-benzo[e][1,3]oxazin-2-one] | 23 ± 13
7 | COCCOCCOc1ccc(N2Cc3ccc(O)cc3OC2=O)cc1 [Compound C2] | 16 ± 5
8 | O=C(O)CCCOc1ccc(N2Cc3ccc(O)cc3OC2=O)cc1 [Compound C4] | 22 ± 8
9 | O=C1Oc2cc(O)ccc2CN1c1ccc(OCCOCCN2CCOc3ccccc32)cc1 [Compound C10, 3-(4-(2-(2-(2,3-Dihydro-4H-benzo[b][1,4]oxazin-4-yl)ethoxy)ethoxy)phenyl)-7-hydroxy-3,4-dihydro-2H-benzo[e][1,3]oxazin-2-one] | 16 ± 1
